{"source": "paper PMC6901289", "about": "(Journal of medicinal chemistry, 2019)", "key": {"[1]": {"tested_on": "α-tubulin acetylation in HCT116 cells", "assay": "α-tubulin acetylation by immunofluorescence", "type": "cell-based, human", "conditions": "six hours"}, "[2]": {"tested_on": "p53 acetylation in HCT116 cells", "assay": "p53 K382 acetylation by western blot", "conditions": "for acetyl p53 (K382) levels: HCT116, 25 μM inhibitor with 400 nM TSA, 6 hours; for dose dependence of acetyl p53 levels: HCT116, 10–50 μM inhibitor with Trichostatin A"}, "SIRT2 [3]": {"molecular_target": "T1, SIRT2 (Homo sapiens, UniProt Q8IXJ6)", "T1 sequence (Q8IXJ6 1-389)": "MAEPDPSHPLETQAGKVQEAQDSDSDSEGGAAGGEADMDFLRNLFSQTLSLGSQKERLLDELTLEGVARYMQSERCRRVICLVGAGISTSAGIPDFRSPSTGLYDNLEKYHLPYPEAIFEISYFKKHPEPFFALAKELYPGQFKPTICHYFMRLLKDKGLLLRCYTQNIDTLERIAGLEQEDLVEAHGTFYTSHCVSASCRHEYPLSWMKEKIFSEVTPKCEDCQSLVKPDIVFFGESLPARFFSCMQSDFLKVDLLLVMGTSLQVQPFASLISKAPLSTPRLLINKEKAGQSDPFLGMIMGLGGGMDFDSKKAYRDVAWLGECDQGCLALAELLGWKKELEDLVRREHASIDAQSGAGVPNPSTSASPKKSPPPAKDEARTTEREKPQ", "assay": "Enzyme IC50 assay, acetyl H3K9 peptide, liquid chromatography", "type": "biochemical", "conditions": "relative selectivity for SIRT2 over SIRT1, Table 1"}, "SIRT1": {"molecular_target": "T2, SIRT1 (Homo sapiens, UniProt Q96EB6)", "T2 sequence (Q96EB6 1-747)": "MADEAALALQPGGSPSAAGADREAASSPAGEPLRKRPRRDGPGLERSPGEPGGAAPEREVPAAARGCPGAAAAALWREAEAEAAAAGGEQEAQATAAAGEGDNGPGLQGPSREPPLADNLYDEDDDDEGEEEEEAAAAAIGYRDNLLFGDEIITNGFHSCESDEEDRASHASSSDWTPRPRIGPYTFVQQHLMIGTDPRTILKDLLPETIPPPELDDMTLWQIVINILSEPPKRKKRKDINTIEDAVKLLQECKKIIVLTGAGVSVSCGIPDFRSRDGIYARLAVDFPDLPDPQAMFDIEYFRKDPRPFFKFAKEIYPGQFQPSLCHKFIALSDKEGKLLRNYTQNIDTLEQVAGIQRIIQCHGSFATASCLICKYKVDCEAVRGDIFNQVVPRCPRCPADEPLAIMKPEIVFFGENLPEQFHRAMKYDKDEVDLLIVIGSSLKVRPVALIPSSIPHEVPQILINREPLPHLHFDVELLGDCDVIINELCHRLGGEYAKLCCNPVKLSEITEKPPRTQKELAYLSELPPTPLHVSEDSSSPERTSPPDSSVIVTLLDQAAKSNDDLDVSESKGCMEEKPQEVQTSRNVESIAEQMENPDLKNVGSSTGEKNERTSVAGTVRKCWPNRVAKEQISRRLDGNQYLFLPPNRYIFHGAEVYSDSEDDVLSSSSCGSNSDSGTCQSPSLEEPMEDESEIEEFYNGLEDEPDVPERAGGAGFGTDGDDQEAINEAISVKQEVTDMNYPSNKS", "assay": "Enzyme IC50 assay, acetyl H3K9 peptide, liquid chromatography", "type": "biochemical", "conditions": "in vitro"}, "[4]": {"assay": "Mouse body weight in xenograft study", "type": "in vivo, NSG mice", "conditions": "treatment groups of xenograft study, intraperitoneal"}, "HCT116 cells": {"tested_on": "HCT116 cells", "assay": "Soft agar colony formation assay", "type": "cell-based, human", "conditions": "at a concentration of 10 μM and greater"}, "HCT116 xenograft": {"tested_on": "HCT116 xenograft", "assay": "HCT116 xenograft mice study", "type": "in vivo, NSG mice", "conditions": "25 mg/kg intraperitoneal, every day"}, "SIRT2 [5]": {"molecular_target": "T1, SIRT2", "assay": "LC-MS detection of covalent intermediate with NAD+ in the presence of SIRT2", "type": "biochemical", "conditions": "incubated with an excess of SIRT2 and NAD+"}}, "note": "Entries after “also recorded” stand apart in the source; their conditions may differ."}
{"smiles": "CCCNC(=S)NCCCC[C@H](NC(=O)OCc1ccccc1)C(=O)Nc1cccc(O)c1", "note": "[Compound C3, Benzyl (S)-(1-((3-hydroxyphenyl)amino)-1-oxo-6-(3-propylthioureido)hexan-2-yl)carbamate]", "values": [{"measurement": "α-tubulin acetylation", "setting": "[1]; HCT116, 25 μM inhibitor", "result": "did not increase the acetylation of α-tubulin"}, {"measurement": "α-tubulin acetylation", "setting": "[1]; HCT116, 50 μM inhibitor", "result": "did not increase the acetylation of α-tubulin"}, {"measurement": "acetyl p53 (K382) levels", "setting": "[2]", "result": "did not increase the acetylation of p53"}]}
{"smiles": "CCCCCCCCCCNC(=S)NCCCC[C@H](NC(=O)OCc1ccccc1)C(=O)Nc1ccccc1", "note": "[AF10, Benzyl (S)-(6-(3-decylthioureido)-1-oxo-1-(phenylamino)hexan-2-yl)carbamate]", "values": [{"measurement": "SIRT2/SIRT1 Selectivity", "setting": "SIRT2 [3]", "result": ">1000"}, {"measurement": "inhibition of SIRT1 deacetylase activity (in words)", "setting": "SIRT1", "result": "no inhibition"}, {"measurement": "mouse body weight loss", "setting": "[4]", "result": "No significant weight loss"}, {"measurement": "α-tubulin acetylation", "setting": "[1]; HCT116, 25 μM inhibitor", "result": "extensive α-tubulin hyperacetylation; also recorded: increased α-tubulin acetylation"}, {"measurement": "α-tubulin acetylation", "setting": "[1]; HCT116, 50 μM inhibitor", "result": "extensive α-tubulin hyperacetylation; also recorded: also increased α-tubulin acetylation"}, {"measurement": "growth of HCT116 cells in soft agar", "setting": "HCT116 cells", "result": "completely inhibited"}, {"measurement": "acetyl p53 (K382) levels", "setting": "[2]", "result": "did not increase the levels of acetyl p53; also recorded: did not noticeably increase p53 acetylation"}, {"measurement": "dose dependence of acetyl p53 levels", "setting": "[2]", "result": "very slight increase in acetyl p53"}]}
{"smiles": "CCCCCCCCCCCCNC(=S)NCCCC[C@H](NC(=O)OCc1ccccc1)C(=O)Nc1ccccc1", "note": "[AF12, Benzyl (S)-(6-(3-dodecylthioureido)-1-oxo-1-(phenylamino)hexan-2-yl)carbamate]", "values": [{"measurement": "SIRT2/SIRT1 Selectivity", "setting": "SIRT2 [3]", "result": ">1000"}, {"measurement": "inhibition of SIRT1 deacetylase activity (in words)", "setting": "SIRT1", "result": "no inhibition"}]}
{"smiles": "CCCCCCCCCCCCCC(=S)NCCCC[C@H](NC(=O)OCc1ccccc1)C(=O)Nc1ccccc1", "note": "[TM, reference compound]", "values": [{"measurement": "α-tubulin acetylation", "setting": "[1]; HCT116, 25 μM inhibitor", "result": "increased α-tubulin acetylation"}, {"measurement": "α-tubulin acetylation", "setting": "[1]; HCT116, 50 μM inhibitor", "result": "also increased α-tubulin acetylation"}, {"measurement": "acetyl p53 (K382) levels", "setting": "[2]", "result": "did not increase the levels of acetyl p53"}]}
{"smiles": "CCCCCCCCCCNC(=S)NCCCC[C@H](NC(=O)OCc1ccccc1)C(=O)Nc1cccc(O)c1", "note": "[Compound C10, Benzyl (S)-(6-(3-decylthioureido)-1-((3-hydroxyphenyl)amino)-1-oxohexan-2-yl)carbamate]", "values": [{"measurement": "α-tubulin acetylation", "setting": "[1]; HCT116, 25 μM inhibitor", "result": "more strongly increased α-tubulin acetylation; also recorded: increased α-tubulin acetylation"}, {"measurement": "α-tubulin acetylation", "setting": "[1]; HCT116, 50 μM inhibitor", "result": "increased α-tubulin acetylation"}, {"measurement": "acetyl p53 (K382) levels", "setting": "[2]", "result": "moderately increased the acetylation of p53; also recorded: moderately increased acetyl p53 levels"}, {"measurement": "dose dependence of acetyl p53 levels", "setting": "[2]", "result": "dose dependent increase in acetyl p53 levels; also recorded: dose dependent increase of acetyl p53"}]}
{"smiles": "CCCCCNC(=S)NCCCC[C@H](NC(=O)OCc1ccccc1)C(=O)Nc1cccc(O)c1", "note": "[Compound C5, Benzyl (S)-(1-((3-hydroxyphenyl)amino)-1-oxo-6-(3-pentylthioureido)hexan-2-yl)carbamate]", "values": [{"measurement": "α-tubulin acetylation", "setting": "[1]; HCT116, 25 μM inhibitor", "result": "slightly increased α-tubulin acetylation"}, {"measurement": "α-tubulin acetylation", "setting": "[1]; HCT116, 50 μM inhibitor", "result": "increased α-tubulin acetylation; also recorded: more robustly increased acetylation"}, {"measurement": "acetyl p53 (K382) levels", "setting": "[2]", "result": "moderately increased the acetylation of p53; also recorded: moderately increased acetyl p53 levels"}]}
{"smiles": "CCCCCCCCNC(=S)NCCCC[C@H](NC(=O)OCc1ccccc1)C(=O)Nc1ccccc1", "note": "[AF8, benzyl (S)-(6-(3-octylthioureido)-1-oxo-1-(phenylamino)hexan-2-yl)carbamate]", "values": [{"measurement": "tumor growth by volume and weight", "setting": "HCT116 xenograft", "result": "slightly decreased tumor growth by volume and weight but did not result in a statistically significant difference"}, {"measurement": "mouse body weight loss", "setting": "[4]", "result": "No significant weight loss"}, {"measurement": "α-tubulin acetylation", "setting": "[1]; HCT116, 25 μM inhibitor", "result": "extensive α-tubulin hyperacetylation; also recorded: increased α-tubulin acetylation"}, {"measurement": "α-tubulin acetylation", "setting": "[1]; HCT116, 50 μM inhibitor", "result": "extensive α-tubulin hyperacetylation; also recorded: also increased α-tubulin acetylation"}, {"measurement": "covalent inhibitor-ADP-ribose intermediate by LC-MS", "setting": "SIRT2 [5]", "result": "detected"}, {"measurement": "growth of HCT116 cells in soft agar", "setting": "HCT116 cells", "result": "completely inhibited"}, {"measurement": "acetyl p53 (K382) levels", "setting": "[2]", "result": "did not increase the levels of acetyl p53; also recorded: did not noticeably increase p53 acetylation"}, {"measurement": "dose dependence of acetyl p53 levels", "setting": "[2]", "result": "did not increase acetyl p53 levels in a dose dependent manner"}]}
